Data from publication PMC4775225, “Bromodomain inhibition of the transcriptional coactivators CBP/EP300 as a therapeutic strategy to target the IRF4 network in multiple myeloma” (eLife, 2016).

Key:
LP-1 = assay: Viability, resazurin, 6 days; type: cell-based, human; details: for GI50: Homo sapiens, 144 h, LP-1, myeloma, 6 days
Method: (§1) Cells were plated at 5000–10000 cells per well of 96-well plates containing titrations of the compounds as indicated. After incubation, the cells were incubated with 500 μg/ml resazurin (Sigma) in PBS for 2–8 hr, and fluorescence was measured (Ex 530 nm, Em 590 nm). Cell cycle analysis was performed as described previously ([Mertz et al., 2011]). For visualization, DNA content histograms were generated with GraphPad Prism. Dose-response curves were generated by plotting the normalized percent growth, percent sub-G1 and percent increase in G0/G1 at each dose values. GI50 values were determined as the concentration at which viability was 50% of the DMSO value and calculated by a four-parameter non-linear regression model in GraphPad Prism.

OPM2 = assay: Viability, resazurin, 6 days; type: cell-based, human; details: for GI50: Homo sapiens, OPM-2, 144 h, OPM2, myeloma, 6 days
Method: as §1

RS4;11 = assay: Viability, resazurin, 6 days; type: cell-based, human; details: for GI50: Homo sapiens, 144 h, RS4;11, ALL, 6 days
Method: as §1

KMM-1 = assay: Viability, resazurin, 6 days; type: cell-based, human; details: for GI50: Homo sapiens, 144 h, KMM-1, myeloma, 6 days
Method: as §1

NCI-H929 = assay: Viability, resazurin, 6 days; type: cell-based, human; details: for GI50: Homo sapiens, 144 h, NCI-H929, myeloma, 6 days
Method: as §1

RPMI-8226 = assay: Viability, resazurin, 6 days; type: cell-based, human; details: for GI50: Homo sapiens, 144 h, RPMI-8226, myeloma, 6 days
Method: as §1

KMS28BM = assay: Viability, resazurin, 6 days; type: cell-based, human; details: for GI50: Homo sapiens, KMS-28BM, 144 h, myeloma, 6 days
Method: as §1

AMO-1 = assay: Viability, resazurin, 6 days; type: cell-based, human; details: for GI50: Homo sapiens, AMO1, 144 h, AMO-1, myeloma, 6 days
Method: as §1

MOLP-8 = assay: Viability, resazurin, 6 days; type: cell-based, human; details: for GI50: Homo sapiens, 144 h, MOLP-8, myeloma, 6 days
Method: as §1

OCI-AML-3 = assay: Viability, resazurin, 6 days; type: cell-based; details: Homo sapiens, 144 h, OCI-AML-3, AML
Method: as §1

BRD7 bromodomain = target: T1, BRD7 bromodomain (Homo sapiens, UniProt Q9NPI1); assay: Differential scanning fluorimetry; type: binding; details: BRD7 4–8 μM, compound 20 μM; read-out: DTm
T1 construct: Differential scanning fluorimetry was carried out with the indicated isolated bromodomains at 4–8 μM
Method: (§2) Variable buffer compositions were used for the different bromodomain proteins with 12X SYPRO orange dye, 20 μM of the compounds or equivalent percentage of DMSO, and 4–8 µM of the indicated protein. […] The melting temperature (Tm) for each sample was determined using the ViiA7 software (version 1.2.2) and the ΔTm was calculated by subtracting the Tm of the control from the Tm of the compound treated sample.

BAZ2B bromodomain = target: T2, BAZ2B bromodomain (Homo sapiens, UniProt Q9UIF8); assay: Differential scanning fluorimetry; type: binding; details: BAZ2B 4–8 μM, compound 20 μM; read-out: DTm
T2 construct: Differential scanning fluorimetry was carried out with the indicated isolated bromodomains at 4–8 μM
Method: as §2

GCN5 bromodomain = GCN5 bromodomain (Homo sapiens, UniProt Q92830); assay: Differential scanning fluorimetry; type: binding; details: GCN5 4–8 μM, compound 20 μM; read-out: DTm
Method: as §2

PCAF bromodomain = target: T3, PCAF bromodomain (Homo sapiens, UniProt Q92831); assay: Differential scanning fluorimetry; type: binding; details: PCAF 4–8 μM, compound 20 μM; read-out: DTm
T3 construct: Differential scanning fluorimetry was carried out with the indicated isolated bromodomains at 4–8 μM
Method: as §2

WDR9 bromodomain = assay: Differential scanning fluorimetry; type: binding; details: WDR9 4–8 μM, compound 20 μM
Method: as §2

BRPF1 bromodomain = target: T4, BRPF1 bromodomain (Homo sapiens, UniProt P55201); assay: Differential scanning fluorimetry; type: binding; details: BRPF1 4–8 μM, compound 20 μM; read-out: DTm
T4 construct: Differential scanning fluorimetry was carried out with the indicated isolated bromodomains at 4–8 μM
Method: as §2

BRD1 bromodomain = target: T5, BRD1 bromodomain (Homo sapiens, UniProt O95696); assay: Differential scanning fluorimetry; type: binding; details: BRD1 4–8 μM, compound 20 μM; read-out: DTm
T5 construct: Differential scanning fluorimetry was carried out with the indicated isolated bromodomains at 4–8 μM
Method: as §2

BAZ1A bromodomain = target: T6, BAZ1A bromodomain (Homo sapiens, UniProt Q9NRL2); assay: Differential scanning fluorimetry; type: binding; details: BAZ1A 4–8 μM, compound 20 μM; read-out: DTm
T6 construct: Differential scanning fluorimetry was carried out with the indicated isolated bromodomains at 4–8 μM
Method: as §2

BPTF bromodomain = target: T7, BPTF bromodomain (Homo sapiens, UniProt Q12830); assay: Differential scanning fluorimetry; type: binding; details: BPTF 4–8 μM, compound 20 μM; read-out: DTm
T7 construct: Differential scanning fluorimetry was carried out with the indicated isolated bromodomains at 4–8 μM
Method: as §2

BRPF3 bromodomain = target: T8, BRPF3 bromodomain (Homo sapiens, UniProt Q9ULD4); assay: Differential scanning fluorimetry; type: binding; details: BRPF3 4–8 μM, compound 20 μM; read-out: DTm
T8 construct: Differential scanning fluorimetry was carried out with the indicated isolated bromodomains at 4–8 μM
Method: as §2

BRD9 bromodomain = target: T9, BRD9 bromodomain (Homo sapiens, UniProt Q9H8M2); assay: Differential scanning fluorimetry; type: binding; details: BRD9 4–8 μM, compound 20 μM; read-out: DTm
T9 construct: Differential scanning fluorimetry was carried out with the indicated isolated bromodomains at 4–8 μM
Method: as §2

BRD4 bromodomain = assay: Differential scanning fluorimetry; type: binding; details: BRD4 4–8 μM, compound 20 μM
Method: as §2

BRD8 bromodomain = assay: Differential scanning fluorimetry; type: binding; details: BRD8 4–8 μM, compound 20 μM
Method: as §2

BRG1 bromodomain = target: T10, BRG1 bromodomain (Homo sapiens, UniProt P51532); assay: Differential scanning fluorimetry; type: binding; details: BRG1 4–8 μM, compound 20 μM; read-out: DTm
T10 construct: Differential scanning fluorimetry was carried out with the indicated isolated bromodomains at 4–8 μM
Method: as §2

CECR2 bromodomain = target: T11, CECR2 bromodomain (Homo sapiens, UniProt Q9BXF3); assay: Differential scanning fluorimetry; type: binding; details: CECR2 4–8 μM, compound 20 μM; read-out: DTm
T11 construct: Differential scanning fluorimetry was carried out with the indicated isolated bromodomains at 4–8 μM
Method: as §2

ASH1L bromodomain = target: T12, ASH1L bromodomain (Homo sapiens, UniProt Q9NR48); assay: Differential scanning fluorimetry; type: binding; details: ASH1L 4–8 μM, compound 20 μM; read-out: DTm
T12 construct: Differential scanning fluorimetry was carried out with the indicated isolated bromodomains at 4–8 μM
Method: as §2

TAF1 BD1 BD2 = target: T13, TAF1 BD1 BD2 (Homo sapiens, UniProt P21675); assay: Differential scanning fluorimetry; type: binding; details: TAF1 BD1 BD2 4–8 μM, compound 20 μM; read-out: DTm
T13 construct: Differential scanning fluorimetry was carried out with the indicated isolated bromodomains at 4–8 μM
Method: as §2

TRIM24 bromodomain = target: T14, TRIM24 bromodomain (Homo sapiens, UniProt O15164); assay: Differential scanning fluorimetry; type: binding; details: TRIM24 4–8 μM, compound 20 μM; read-out: DTm
T14 construct: Differential scanning fluorimetry was carried out with the indicated isolated bromodomains at 4–8 μM
Method: as §2

T4 sequence (P55201 628-732 limits assumed): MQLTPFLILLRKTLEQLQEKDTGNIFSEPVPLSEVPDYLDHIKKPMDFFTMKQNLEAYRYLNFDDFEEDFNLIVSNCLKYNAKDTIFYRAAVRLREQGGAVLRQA
T6 sequence (Q9NRL2 1430-1533 limits assumed): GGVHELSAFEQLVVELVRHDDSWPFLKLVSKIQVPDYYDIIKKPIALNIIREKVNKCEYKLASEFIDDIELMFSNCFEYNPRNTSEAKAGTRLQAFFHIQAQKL
Sequence of GCN5 bromodomain (Q92830 728-832 limits assumed): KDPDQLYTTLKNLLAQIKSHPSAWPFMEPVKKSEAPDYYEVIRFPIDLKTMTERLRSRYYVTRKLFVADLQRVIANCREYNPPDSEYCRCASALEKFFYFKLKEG
T14 sequence (O15164 899-1004 limits assumed): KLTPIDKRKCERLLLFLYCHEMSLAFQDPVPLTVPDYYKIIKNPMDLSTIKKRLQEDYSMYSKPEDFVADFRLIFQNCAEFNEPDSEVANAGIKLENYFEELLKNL
T2 sequence (Q9UIF8 2060-2164 limits assumed): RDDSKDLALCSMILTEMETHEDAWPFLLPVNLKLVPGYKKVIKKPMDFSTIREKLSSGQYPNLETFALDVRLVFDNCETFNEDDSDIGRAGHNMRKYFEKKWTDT
T10 sequence (P51532 1453-1564 limits assumed): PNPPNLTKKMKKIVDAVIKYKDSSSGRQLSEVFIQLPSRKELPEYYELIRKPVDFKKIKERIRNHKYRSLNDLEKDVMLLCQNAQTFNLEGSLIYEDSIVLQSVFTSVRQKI
T1 sequence (Q9NPI1 131-235 limits assumed): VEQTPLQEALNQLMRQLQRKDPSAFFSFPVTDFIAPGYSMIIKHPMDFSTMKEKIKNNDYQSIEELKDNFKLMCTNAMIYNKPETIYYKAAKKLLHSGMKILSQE
T3 sequence (Q92831 723-827 limits assumed): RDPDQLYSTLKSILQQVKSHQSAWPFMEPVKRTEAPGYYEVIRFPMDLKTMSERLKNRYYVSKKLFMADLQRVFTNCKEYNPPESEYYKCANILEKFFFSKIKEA
T9 sequence (Q9H8M2 136-240 limits assumed): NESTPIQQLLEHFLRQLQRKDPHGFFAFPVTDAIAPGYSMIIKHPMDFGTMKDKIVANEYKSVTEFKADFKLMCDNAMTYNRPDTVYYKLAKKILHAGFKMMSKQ
T8 sequence (Q9ULD4 589-693 limits assumed): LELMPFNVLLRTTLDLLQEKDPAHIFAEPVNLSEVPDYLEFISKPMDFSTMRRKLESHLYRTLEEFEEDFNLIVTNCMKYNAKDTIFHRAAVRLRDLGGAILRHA
T5 sequence (O95696 562-666 limits assumed): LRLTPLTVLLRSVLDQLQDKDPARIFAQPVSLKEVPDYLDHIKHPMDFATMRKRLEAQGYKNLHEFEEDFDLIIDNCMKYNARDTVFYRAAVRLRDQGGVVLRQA
T13 sequence (P21675 1397-1628 limits assumed): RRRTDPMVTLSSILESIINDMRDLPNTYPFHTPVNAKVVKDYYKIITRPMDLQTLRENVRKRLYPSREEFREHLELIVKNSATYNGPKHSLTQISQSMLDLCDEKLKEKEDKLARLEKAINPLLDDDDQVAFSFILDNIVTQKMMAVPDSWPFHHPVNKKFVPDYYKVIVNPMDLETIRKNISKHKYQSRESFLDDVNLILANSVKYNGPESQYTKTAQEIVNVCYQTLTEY
T11 sequence (Q9BXF3 434-538 limits assumed): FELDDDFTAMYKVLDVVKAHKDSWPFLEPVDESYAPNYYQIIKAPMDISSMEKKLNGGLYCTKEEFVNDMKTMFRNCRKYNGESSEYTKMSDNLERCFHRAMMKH

CCC(=O)N1CCOc2c(cc(-c3ccc(OC)c(OC)c3)cc2OC[C@H]2CCCN(C)C2)C1 [I-CBP112]
GI50 (LP-1): 1.51 µM | GI50 (OPM2): 2.82 µM | GI50 (RS4;11): 15.6 µM | GI50 (KMM-1): > 20 µM | GI50 (NCI-H929): 3.8 µM | GI50 (RPMI-8226): 14.6 µM | GI50 (KMS28BM): 4.44 µM | GI50 (AMO-1): 9.39 µM | GI50 (MOLP-8): 3.52 µM | GI50 (OCI-AML-3): 5.51 µM | ΔTm at 20 µM (BRD7 bromodomain): 0.44 °C | ΔTm at 20 µM (BAZ2B bromodomain): 0.28 °C | ΔTm at 20 µM (GCN5 bromodomain): 0.14 °C | ΔTm at 20 µM (PCAF bromodomain): -0.08 °C | DTm (WDR9 bromodomain): 0.04 °C | ΔTm at 20 µM (BRPF1 bromodomain): 0.11 °C | ΔTm at 20 µM (BRD1 bromodomain): -0.44 °C | ΔTm at 20 µM (BAZ1A bromodomain): 0.41 °C | ΔTm at 20 µM (BPTF bromodomain): 0.93 °C | ΔTm at 20 µM (BRPF3 bromodomain): 0.75 °C | ΔTm at 20 µM (BRD9 bromodomain): 0.37 °C | DTm (BRD4 bromodomain): 2.12 °C | DTm (BRD8 bromodomain): 0.88 °C | ΔTm at 20 µM (BRG1 bromodomain): 0.38 °C | ΔTm at 20 µM (CECR2 bromodomain): 1.46 °C | ΔTm at 20 µM (ASH1L bromodomain): 0.04 °C | ΔTm at 20 µM (TAF1 BD1 BD2): 0.12 °C | ΔTm at 20 µM (TRIM24 bromodomain): 0.32 °C

COc1ccc(CCc2nc3cc(-c4c(C)noc4C)ccc3n2C[C@H](C)N2CCOCC2)cc1Cl [SGC-CBP30]
GI50 (LP-1): 0.78 µM | log2GI50 (LP-1; LP1): -0.36 | GI50 (OPM2): 1.53 µM | log2GI50 (OPM2; OPM2): 0.61 | GI50 (RS4;11): 9.99 µM | log2GI50 (RS4;11; RS411): 3.32 | GI50 (KMM-1): 11.7 µM | log2GI50 (KMM-1; KMM1): 3.54 | log2GI50 (NCI-H929; H929): 0.75 | GI50 (NCI-H929): 1.68 µM | GI50 (RPMI-8226): 3.44 µM | log2GI50 (RPMI-8226; RPMI8226): 1.78 | log2GI50 (KMS28BM): 1.12 | GI50 (KMS28BM): 2.17 µM | log2GI50 (AMO-1; AMO1): 0.85 | GI50 (AMO-1): 1.8 µM | GI50 (MOLP-8): 2.06 µM | log2GI50 (MOLP-8; MOLP8): 1.04 | GI50 (OCI-AML-3): 3.49 µM | ΔTm at 20 µM (BRD7 bromodomain): 0.5 °C | ΔTm at 20 µM (BAZ2B bromodomain): -0.06 °C | ΔTm at 20 µM (GCN5 bromodomain): -0.09 °C | ΔTm at 20 µM (PCAF bromodomain): -0.08 °C | DTm (WDR9 bromodomain): -0.08 °C | ΔTm at 20 µM (BRPF1 bromodomain): 0.11 °C | ΔTm at 20 µM (BRD1 bromodomain): 0.26 °C | ΔTm at 20 µM (BAZ1A bromodomain): 0.18 °C | ΔTm at 20 µM (BPTF bromodomain): 0.69 °C | ΔTm at 20 µM (BRPF3 bromodomain): -0.18 °C | ΔTm at 20 µM (BRD9 bromodomain): 0.37 °C | DTm (BRD4 bromodomain): 2.01 °C | DTm (BRD8 bromodomain): 0.76 °C | ΔTm at 20 µM (BRG1 bromodomain): 0.27 °C | ΔTm at 20 µM (CECR2 bromodomain): 0.76 °C | ΔTm at 20 µM (ASH1L bromodomain): 0.04 °C | ΔTm at 20 µM (TAF1 BD1 BD2): 0.12 °C | ΔTm at 20 µM (TRIM24 bromodomain): 0.43 °C
